Laboratory results published in patent US12036292B2, “Heterobiaryl compounds and imaging agents for imaging huntingtin protein” (CHDI Foundation, Inc., priority 2020, dated 2024).

Each compound was assayed against T1, MBP-HTT(1-89)Q46-His(6×) (“Exon1-Q46”) protein aggregates (Homo sapiens, UniProt P42858, INS38QQQQQQQQQQQQQQQQQQQQQQQQQ) (assay: Exon1-Q46 Radioligand Binding Assay). Conditions: displacement of 0.3 nM ligand [3H3-methyl]-5-((5-methoxypyridin-2-yl)methoxy)-2-(pyrazin-2-yl)benzo[d]oxazole from 1 μM aggregated Exon1-Q46 protein; 60 minutes at 37° C.; read-out: Classified Potency.
T1 construct: MBP-HTT(1-89)Q46-His(6×); His(6×) (C); made in house
Experimental: Exon1-Q46 Radioligand Binding Assay
For radioligand binding assays (RBA) MBP-HTT(1-89)Q46-His(6×) (“Exon1-Q46”) protein was generated based on a previous publication (Scherzinger et al. Cell, Vol. 90, 549-558, Aug. 8, 1997). For experiments, 30 pM MBP-Exon1-Q46 was incubated with 150 μg/mL thrombin in assay buffer (150 mM NaCl, 50 mM Tris pH 8.0) and 2 mM CaCl2 for 16 hours at 37° C. Aggregated Exon1-Q46 was pelleted by centrifugation for 5 minutes at 13,000 rpm in a bench top centrifuge and re-dissolved in the same volume of assay buffer. Test compounds were prepared by titration in DMSO at 11 concentrations from 63 μM to 2 nM. For the RBA, Q46 protein aggregates and test compounds were pre-incubated in assay buffer for 20 minutes at room temperature, in 100 μL/well in a 96-well plate (pp, round bottom). Then, ligand was added in 50 μL/well and incubated for 60 minutes at 37° C. Final assay concentrations were 1 μM to 30 pM test compound, 1 μM Exon1-Q46 protein (equivalent monomer concentration) and 0.3 nM ligand [^3H3-methyl]-5-((5-methoxypyridin-2-yl)methoxy)-2-(pyrazin-2-yl)benzo[d]oxazole. Samples were transferred onto GF/B filter plates and washed 2× with 200 μL PBS using a Filtermate Harvester. After drying filter plates for 1 hour at 55° C., the back of the plates were sealed with foil and 30 μL/well scintillation fluid (Packard MicroScint 40) added, incubated for 15 minutes in the dark and counted in a MicroBeta reader. For analysis, replicate data from independent assay plates were normalized towards 0% and 100% inhibition using control wells of vehicle (0% inhibition) and 1 μM unlabeled [^3H3-methyl]-5-((5-methoxypyridin-2-yl)methoxy)-2-(pyrazin-2-yl)benzo[d]oxazole (100% inhibition). IC50 values were determined with a sigmoidal inhibition model with four variables (top, bottom, slope, IC50) in a global fit using the normalized replicate data.
The results for various example compounds were as provided in the table below (+++<100 nM; ++100-500; +500-10000; ND: not determined): […]

T1 sequence (P42858 with tags, fused parts or gaps with the stated changes limits assumed): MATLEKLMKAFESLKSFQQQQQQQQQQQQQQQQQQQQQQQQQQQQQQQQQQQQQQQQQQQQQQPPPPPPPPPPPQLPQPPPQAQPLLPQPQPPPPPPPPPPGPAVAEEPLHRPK

| IC50 [nM] | SMILES |
| --- | --- |
| < 100 | Cn1cc(NC(=O)c2cc(-c3cc(F)cc(Cl)c3)ncn2)cnc1=O [Example 35, 6-(3-Chloro-5-fluorophenyl)-N-(1-methyl-2-oxo-1,2-dihydropyrimidin-5-yl)pyrimidine-4-carboxamide] |
| < 100 | COc1ccc(-c2cc(C(=O)Nc3cnn(C)c(=O)c3)ncn2)cc1Cl [Example 36, 6-(3-Chloro-4-methoxyphenyl)-N-(1-methyl-6-oxo-1,6-dihydropyridazin-4-yl)pyrimidine-4-carboxamide] |
| < 100 | COc1cncc(NC(=O)c2cc(-c3cccc(Cl)c3)ncn2)c1 [Example 3] |
| < 100 | COc1ncc(NC(=O)c2cc(-c3cc(F)cc(Cl)c3)ncn2)cn1 [Example 28] |
| < 100 | Cn1nc(NC(=O)c2cc(-c3cc(F)cc(Cl)c3)ncn2)ccc1=O [Example 11] |
| < 100 | O=C(Nc1ccccc1)c1cc(-c2cccc(Cl)c2)ncn1 [Example 1, 6-(3-Chlorophenyl)-N-phenylpyrimidine-4-carboxamide] |
| < 100 | COc1cccc(-c2cc(C(=O)Nc3ccc(=O)n(C)n3)ncn2)c1 [Example 4, 6-(3-Methoxyphenyl)-N-(1-methyl-6-oxo-1,6-dihydropyridazin-3-yl)pyrimidine-4-carboxamide] |
| < 100 | Cn1nc(NC(=O)c2cc(-c3ccc(F)c(Cl)c3)ncn2)ccc1=O [Example 12] |
| < 100 | Cn1ncc(NC(=O)c2cc(-c3cc(F)cc(Cl)c3)ncn2)cc1=O [Example 39] |
| < 100 | COc1cc(-c2cc(C(=O)Nc3ccc(=O)n(C)n3)ncn2)ccc1Cl [Example 9] |
| < 100 | Cc1cc(Cl)cc(-c2cc(C(=O)Nc3ccc(=O)n(C)n3)ncn2)c1 [Example 22] |
| < 100 | COc1ccc(-c2cc(C(=O)Nc3ccc(=O)n(C)n3)ncn2)cc1Cl [Example 8, 6-(3-Chloro-4-methoxyphenyl)-N-(1-methyl-6-oxo-1,6-dihydropyridazin-3-yl)pyrimidine-4-carboxamide] |
| < 100 | O=C(c1cc(-c2cccc(Cl)c2)ncn1)N1CCc2ccccc21 [Example 2] |
| < 100 | COc1cc(-c2cc(C(=O)Nc3ccc(=O)n(C)n3)ncn2)ccc1F [Example 10] |

Continued, compound first:

| SMILES | IC50 [nM] |
| --- | --- |
| COc1cnc(NC(=O)c2cc(-c3cc(F)cc(Cl)c3)ncn2)cn1 [Example 25] | < 100 |
| Cn1ccnc(NC(=O)c2cc(-c3cc(F)cc(Cl)c3)ncn2)c1=O [Example 24] | < 100 |
| COc1cc(-c2cc(C(=O)N3Cc4cccnc4C3)ncn2)ccn1 [Example 14] | < 100 |
| Cn1c(CNC(=O)c2cc(-c3cc(F)cc(Cl)c3)ncn2)nccc1=O [Example 31] | < 100 |
| COc1cc(C#N)cc(-c2cc(C(=O)Nc3ccc(=O)n(C)n3)ncn2)c1 [Example 19] | < 100 |
| COc1cc(C#N)cc(-c2cc(C(=O)Nc3ccc(=O)[nH]n3)ncn2)c1 [Example 26] | < 100 |
| COc1cc(-c2cc(C(=O)Nc3cncc(Cl)c3OC)ncn2)ccn1 [Example 6] | < 100 |
| COc1cc(-c2cc(C(=O)Nc3ccc(=O)n(C)n3)nc(-c3ccccc3)n2)ccn1 [Example 40, 6-(2-Methoxypyridin-4-yl)-N-(1-methyl-6-oxo-1,6-dihydropyridazin-3-yl)-2-phenylpyrimidine-4-carboxamide] | < 100 |
| Cn1cnc(NC(=O)c2cc(-c3cc(F)cc(Cl)c3)ncn2)cc1=O [Example 38] | < 100 |
| COc1ccnc(CNC(=O)c2cc(-c3ccc(F)c(OC)c3)ncn2)n1 [Example 16] | < 100 |
| COc1cc(-c2cc(C(=O)NCc3ncccc3OC)ncn2)ccc1F [Example 15] | < 100 |
| COc1cc(-c2cc(C(=O)NCc3nccc(=O)n3C)ncn2)ccc1F [Example 29, 6-(4-Fluoro-3-methoxyphenyl)-N-((1-methyl-6-oxo-1,6-dihydropyrimidin-2-yl)methyl)pyrimidine-4-carboxamide] | < 100 |
| COc1ccc(CNC(=O)c2cc(-c3ccc(F)c(OC)c3)ncn2)nc1 [Example 13] | < 100 |
| COc1cc(F)cc(-c2cc(C(=O)Nc3ccc(=O)n(C)n3)ncn2)c1 [Example 21] | < 100 |
| Cn1nc(NC(=O)c2cc(-c3cc(F)nc(Cl)c3)ncn2)ccc1=O [Example 23] | < 100 |
| COc1ccc(-c2cc(C(=O)NCc3nccc(=O)n3C)ncn2)cc1Cl [Example 30] | < 100 |
| COc1ccc(-c2cc(C(=O)Nc3nccn(C)c3=O)ncn2)cc1Cl [Example 18] | < 100 |
| COc1cncc(NC(=O)c2cc(-c3ccnc(OC)c3)ncn2)c1 [Example 7] | < 100 |
| COc1cc(-c2cc(C(=O)Nc3cncc(OC)c3C)ncn2)ccn1 [Example 5] | < 100 |
| Cn1nc(NC(=O)c2cc(-c3cc(F)cc(C#N)c3)ncn2)ccc1=O [Example 20] | < 100 |
| COc1ccc(-c2cc(C(=O)Nc3cc(=O)n(C)cn3)ncn2)cc1Cl [Example 37] | < 100 |
| COc1ncc(-c2cc(C(=O)NCc3nccc(=O)n3C)ncn2)cc1Cl [Example 33, 6-(5-Chloro-6-methoxypyridin-3-yl)-N-((1-methyl-6-oxo-1,6-dihydropyrimidin-2-yl)methyl)pyrimidine-4-carboxamide] | < 100 |
| COc1ccnc(CNC(=O)c2cc(-c3cnc(OC)c(Cl)c3)ncn2)n1 [Example 34, 6-(5-chloro-6-methoxypyridin-3-yl)-N-((4-methoxypyrimidin-2-yl)methyl)pyrimidine-4-carboxamide] | < 100 |
| COc1ncc(-c2cc(C(=O)Nc3ccc(=O)n(C)n3)ncn2)cc1Cl [Example 17] | < 100 |
| N#Cc1cc(F)cc(-c2cc(C(=O)Nc3ccc(=O)[nH]n3)ncn2)c1 [Example 27] | < 100 |
| Cn1c(CNC(=O)c2cc(-c3cc(F)cc(C#N)c3)ncn2)nccc1=O [Example 32] | < 100 |
